Test results taken from BindingDB's records for doi:10.1021/jm020901d (Eli Lilly, 2002).

Target: T1, Glutamate racemase (Limosilactobacillus fermentum, UniProt Q03469)
T1 sequence (Q03469 whole entry): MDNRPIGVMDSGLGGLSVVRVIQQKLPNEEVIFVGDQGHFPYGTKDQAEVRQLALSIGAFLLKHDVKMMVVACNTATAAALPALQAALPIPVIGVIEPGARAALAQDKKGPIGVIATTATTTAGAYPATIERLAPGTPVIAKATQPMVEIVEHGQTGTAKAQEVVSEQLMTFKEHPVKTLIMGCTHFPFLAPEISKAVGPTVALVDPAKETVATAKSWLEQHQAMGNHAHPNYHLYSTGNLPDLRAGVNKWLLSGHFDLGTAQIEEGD
Assay: Binding affinity against Glutamate Racemase

Ki: 16 nM
Structure (SMILES): N[C@H](C[C@H](Cc1ccc2ccccc2c1)C(=O)O)C(=O)O [2-Amino-4-naphthalen-2-ylmethyl-pentanedioic acid]
